Assay: solvent given as SMILES

Oc1ccccc1
Conditions	solvation free energy, 298 K [kcal/mol]
in CC(C)CC(C)(C)C	-5.23
in CCCCCCC	-4.97
in CCCCCCCCCC	-5.49
in Cc1ccc(C)cc1	-6.77
in Cc1cccc(C)c1	-6.78
in Cc1ccccc1C	-6.84
in O	-6.62

Nc1cccc(Cl)c1
Conditions	solvation free energy, 298 K [kcal/mol]
in O	-5.9

COc1c(Cl)cc(Cl)c(OC)c1O
Conditions	solvation free energy, 298 K [kcal/mol]
in O	-6.44

c1ccc(P(c2ccccc2)c2ccccc2)cc1
Conditions	solvation free energy, 298 K [kcal/mol]
in CC(C)O	-15.4
in CCO	-15.7
in CO	-15.4

Oc1cccc2ccccc12
Conditions	solvation free energy, 298 K [kcal/mol]
in CC(C)CC(C)(C)C	-8.54
in CCCCCC	-8.71
in CCCCCCC	-8.75
in CCCCCCCC	-8.73
in CCCCCCCCCC	-8.76
in O	-7.93

CCOP(=S)(OCC)SCSc1ccc(Cl)cc1
Conditions	solvation free energy, 298 K [kcal/mol]
in O	-6.5

CCNc1nc(Cl)nc(NC(C)C)n1
Conditions	solvation free energy, 298 K [kcal/mol]
in O	-9.69

C=CC=CC=C
Conditions	solvation free energy, 298 K [kcal/mol]
in C=CCCCCCCCCCCCCCC	-3.78
in O	0.2

C=C(C)C1CC=C(C)C(OC(=O)CCC)C1 (configuration not stated)
Conditions	solvation free energy, 298 K [kcal/mol]
in O	-3.9

CCCCCCCN
Conditions	solvation free energy, 298 K [kcal/mol]
in CCCCCCC	-6.22

CCCCCCCCC
Conditions	solvation free energy, 298 K [kcal/mol]
in Brc1ccccc1	-5.75
in C1CCCCC1	-6.23
in C1CCOC1	-5.94
in C1COCCO1	-5.1
in C=CCCCC	-6.1
in C=CCCCCCC	-5.95
in C=CCCCCCCCC	-5.89
in CC1COC(=O)O1	-3.44
in CC#N	-4.12
in CC(=O)N(C)C	-4.53
in CC(=O)O	-4.5
in CC(=O)c1ccccc1	-4.92
in CC(C)=O	-4.99
in CC(C)CC(C)(C)C	-5.95
in CC(C)CCCC(C)CCCC(C)CCCCC(C)CCCC(C)CCCC(C)C	-5.5
in CC(C)CCO	-5.21
in CC(C)O	-5.01
in CC(C)OC(C)C	-5.88
in CCBr	-5.96
in CCC#N	-4.68
in CCC(C)=O	-5.31
in CCCC#N	-5.01
in CCCC(=O)OCC	-5.57
in CCCC(C)=O	-5.41
in CCCCC	-6.12
in CCCCCC	-6.12
in CCCCCC(C)=O	-5.45
in CCCCCCC	-6.06
in CCCCCCCC	-5.98
in CCCCCCCCCC	-5.88
in CCCCCCCCCCCC	-5.79
in CCCCCCCCCCCCCCCC	-5.68
in CCCCCCCCO	-5.29
in CCCCCCOC(C)=O	-5.56
in CCCCO	-5.09
in CCCCOC(C)=O	-5.48
in CCCCOCCCC	-5.95
in CCCO	-4.94
in CCN(CC)CC	-6.06
in CCO	-4.84
in CCOC(=O)c1ccccc1C(=O)OCC	-4.53
in CCOC(C)=O	-5.32
in CCOCC	-5.97
in CCOCCOCCOCC	-5.25
in CCOc1ccccc1	-5.42
in CN1CCCC1=O	-4.3
in CN(C)C=O	-4.3
in CN(C)P(=O)(N(C)C)N(C)C	-4.86
in CNC=O	-3.82
in CO	-4.4
in COC(C)=O	-5.07
in COCCO	-4.28
in COc1ccccc1	-5.35
in CS(C)=O	-3.24
in Cc1ccc(C)cc1	-5.93
in Cc1ccccc1	-5.95
in Cc1ccccn1	-5.45
in ClC(Cl)(Cl)Cl	-6.2
in ClC(Cl)Cl	-6.04
in ClCCCl	-5.32
in ClCCl	-5.72
in Clc1ccccc1	-5.97
in FC(F)(F)C(F)(F)C(F)(F)C(F)(F)C(F)(F)C(F)(F)C(F)(F)C(F)(F)F	-3.92
in FC(F)(F)C(F)(F)C(F)(F)C(F)(F)C(F)(F)C(F)(F)F	-3.96
in Fc1ccccc1	-5.76
in ICI	-3.73
in N#CCCCCC#N	-3.46
in N#Cc1ccccc1	-4.97
in NC=O	-1.66
in NCCO	-2.24
in Nc1ccccc1	-4.09
in O	2.98
in O=C1CCCCC1	-5.24
in O=C1CCCO1	-3.71
in O=CN1CCOCC1	-3.47
in OCCO	-2.03
in OCCOCCO	-2.76
in OCCOCCOCCO	-2.92
in OCCOCCOCCOCCO	-3.13
in OCc1ccccc1	-4.36
in S=C=S	-6.17
in c1ccccc1	-5.89
in c1ccncc1	-5.13
